# Calls of active or inactive are those of the source. The rule behind the calls is not given here.
# What was measured:
# Arvicola amphibius [1] = assay: Herbivore repellent activity against adult Arvicola amphibius assessed as time required to enter the test box with apple pieces for first time by T-maze test (reference value: 380.25 +/-321.70 secs); format: functional
# Arvicola amphibius [2] = assay: Herbivore repellent activity against adult Arvicola amphibius assessed as duration of stay within test box with apple pieces by T-maze test (reference value: 56.72 +/-13.89%); format: functional
# Arvicola amphibius [3] = assay: Herbivore repellent activity against adult Arvicola amphibius assessed as time required to enter the test box with apple pieces for first time by T-maze test (reference value: 268.50 +/-417.85 secs); format: functional
# Arvicola amphibius [4] = assay: Herbivore repellent activity against adult Arvicola amphibius assessed as decrease in frequency of entry of test box with apple pieces by T-maze test; format: functional, organism-based
# Arvicola amphibius [5] = assay: Herbivore repellent activity against adult Arvicola amphibius assessed as duration of stay within test box with apple pieces by T-maze test (reference value: 85.30 +/-13.79%); format: functional
# Arvicola amphibius [6] = assay: Herbivore repellent activity against adult Arvicola amphibius assessed as time required to enter the test box with apple pieces for first time by T-maze test (reference value: 240.75 +/-184.07 secs); format: functional
# Arvicola amphibius [7] = assay: Herbivore repellent activity against adult Arvicola amphibius assessed as duration of stay within test box with apple pieces by T-maze test (reference value: 75.53 +/-16.57%); format: functional
# Arvicola amphibius [8] = assay: Herbivore repellent activity against adult Arvicola amphibius assessed as time required to enter the test box with apple pieces for first time by T-maze test (reference value: 438.43 +/-312.37 secs); format: functional
# Arvicola amphibius [9] = assay: Herbivore repellent activity against adult Arvicola amphibius assessed as duration of stay within test box with apple pieces by T-maze test (reference value: 59.20 +/-31.75%); format: functional
# Arvicola amphibius [10] = assay: Herbivore repellent activity against adult Arvicola amphibius assessed as time required to enter the test box with apple pieces for first time by T-maze test (reference value: 277.50 +/-166.07 secs); format: functional
# Arvicola amphibius [11] = assay: Herbivore repellent activity against adult Arvicola amphibius assessed as duration of stay within test box with apple pieces by T-maze test (reference value: 59.19 +/-19.83%); format: functional
smiles,measurement,setting,value
CCCCCCCCC(=O)O [NONANOATE],Time,Arvicola amphibius [1],507.75 s
same,Activity,Arvicola amphibius [2],43.28%
CCCCCCCCCC(C)=O [METHYL NONYL KETONE],Time,Arvicola amphibius [3],888.38 s
same,inhibition,Arvicola amphibius [4],Active
same,Activity,Arvicola amphibius [5],14.7%
CCCCC(=O)O [VALERIC ACID],Time,Arvicola amphibius [6],769.13 s
same,Activity,Arvicola amphibius [7],24.47%
CCCS [1-PROPANETHIOL],Time,Arvicola amphibius [8],996.29 s
same,Activity,Arvicola amphibius [9],40.8%
CC(C)=CCC/C(C)=C/CO [GERANIOL],Time,Arvicola amphibius [10],326.38 s
same,Activity,Arvicola amphibius [11],40.8%

# Reference: ChEMBL document CHEMBL3046269, “The repelling effect of plant secondary metabolites on water voles, Arvicola amphibius” (2013)
